Key:
Capan-2 cell homogenate = assay: Prodrug hydrolysis in Capan-2 cell homogenate with the presence and the absence of selective enzyme inhibitors; assay type: in vitro ADME; conditions: for Half Life, DPP 3 Inhibitor: Capan-2 cell homogenate with 1,10-phenanthroline; for Half Life, DPP 3 Inhibitor / Half Life, TPP 2 Inhibitor / Half Life, Cathepsin D Inhibitor / Half Life, Aminopeptidase Inhibitor / Half Life, Capan-2 Cell Homogenate: 37 °C; for Half Life, DPP 3 Inhibitor / Half Life, TPP 2 Inhibitor / Half Life, Cathepsin D Inhibitor / Half Life, Aminopeptidase Inhibitor: pH 7.4; for Half Life, TPP 2 Inhibitor: Capan-2 cell homogenate with H-Ala-Ala-Phe-CMK CF3CO2H; for Half Life, Cathepsin D Inhibitor: Capan-2 cell homogenate with pepstatin A; for Half Life, Aminopeptidase Inhibitor: Capan-2 cell homogenate with puromycin; for Half Life, Capan-2 Cell Homogenate: no inhibitor, pH 7.4 phosphate buffer, 200 µM substrate, mean ± s.d.
Experimental: Hydrolysis StudiesPreparation of Capan-2 cell homogenates. Preparation of cell homogenates has been reported previously. Confluent Capan-2 cells (2 plates; 150 mm × 25 mm plate) were rinsed with saline twice. The cells were washed off with 5 mL of pH 7.4 phosphate buffer (10 mmol/L) and the lysed cells by ultrasonication (Micro ultrasonic cell disrupter Model KT40, Kontes, Vineland, NJ, USA) were spun down by centrifugation.
(§1) Preparation of Cytosolic Enzyme Extract. Confluent Caco-2 cells and Capan-2 cells (2 plates; 150 mm × 25 mm plate) were rinsed with saline twice. The cells were washed off with 1 mL of pH 7.4 phosphate buffer (10 mmol/L) and the enzymes were extracted through 30 gauge needle 10 times in ice-cold bath. Cell suspension was spun at 10,000 × g for 2 h at 4 °C and the supernatant was spun at 39,000 × g for 2 h at 4 °C. Protein amount was quantified with the Bio-Rad (Hercules, CA, USA) DC Protein Assay using bovine serum albumin as a standard. The protein amount was adjusted to 500 µg/mL and the hydrolysis reactions were carried out in 96-well plates (Corning). Caco-2 cells and Capan-2 cell suspensions (250 µL) were placed in triplicate wells either presence or absence of various inhibitors, the reactions were started with the addition of substrate (200 µM), and wells were incubated at 37 °C for 120 min (time points; 0, 5, 10, 30, 60, and 120 min). At each time point, aliquot sample (35 µL) was removed and added to 150 µL of acetonitrile (ACN) with 0.1% TFA to prevent the further degradation. The mixtures were filtered with a 0.45 µm filters at 1,000 × g for 10 min at 4 °C. The filtrate wasthen analyzed via reverse-phaseHPLC.
(§2) The initial rates of hydrolysis were used to obtain the apparent first-order rate constants and estimate the half-lives. The apparent first-order degradation rate constants of various floxuridine prodrugs at 37 °C were determined by plotting the logarithm of prodrug remaining as a function of time. The slopes of these plots are related to the rate constant, k, and given by:
k = 2.303 × slope (log C vs. time) (1)
The degradation half-lives were then estimated by the equation: […]
(§3) The concentrations of prodrugs and their metabolites were determined on a Waters HPLC system (Waters, Inc., Milford, MA, USA). The HPLC system consisted of two Waters pumps (model 515), a Waters autosampler (WISP model 712), and a Waters UV detector (996 photodiode array detector). The system was controlled by Waters Millennium 32 software (version 3.0.1). Samples were injected onto a Waters Xterra C18 reverse-phase column (5 µm, 4.6 × 250 mm) equipped with a guard column. The compounds were eluted using gradient method. All prodrugs were run with the solvent B gradient changing 0% to 56% at a rate of 2%/min during a 28-min run. Standard curves generated for each prodrug and their parent drugs were used for quantitation of integrated area under peaks.

[1] = test system: Capan-2 cell homogenates and cytosolic enzyme extracts; assay: Prodrug stability in cytosolic enzyme extract versus whole cell homogenate of Capan-2 cells; assay type: in vitro ADME
Experimental: In stability studies of test compounds in cell homogenates, the location of enzymes in living cells is not considered and the inaccessible enzymes in vivo condition may be able to degrade those analytes in this in vitro setting. Therefore, the result of prodrug stabilities in cell homogenate may be different to one in vivo, where all enzymes are arranged in all specific locations. The experiments of prodrug activation concerning the location of enzymes in cells were performed at 37 °C in Capan-2 cell homogenates and in cytosolic enzyme extracts. For the comparison purpose, the same experiments were performed at 37 °C in Caco-2 cell homogenates and in cytosolic enzyme extracts. […] The difference between them was minimal (1.4- to 2.5 fold). […] In Capan-2 cells, the stabilities of 5′-O-L-phenylalanyl-L-glycylfloxuridine and 5′-O-L-phenylalanylfloxuridine were improved 7.4- and 7.3-fold, while the ones of 5′-O-L- phenylalanyl-L-tyrosylfloxuridine and 5′-O-L-glycyl-L-leucylfloxuridine were declined 3.9- and 6.0-fold, respectively.
as §1, §2, §3

Capan-2 cell lines = assay: Cell proliferation (XTT) assay; assay type: cell-based; conditions: 4 mmol/L, 4 h drug treatment
Experimental: The percentage of growth inhibition for amino acid/dipeptide monoester prodrugs of floxuridine in Capan-2 cell was evaluated via 2,3-bis[2-methoxy-4-nitro-5-sulfophenyl]-2H-tetrazolium-5-carboxanilideinner salt (XTT) assays (Figure 3). The growth inhibitory effect of tested floxuridine prodrugs after 4 h drug treatment range from 0.0–91.1% at 4 h, 0.0–84.2% at 8 h, and 41.8–84.8% at 24 h in Capan-2 cell lines. […] While specific activation enzymes for 5′-O-L-leucyl-L-glycylfloxuridine and 5′-O-L-phenylalanylfloxuridine have not been identified, those enzymes may be highly localized at the plasma membrane and cytosol. Thus, the activation of those prodrugs took place immediately after translocation of prodrugs into the cells and started inhibiting tumor growth. Leucine and phenylalanine are reportedly good substrates for aminopeptidases and carboxylesterase, respectively.
Cell proliferation studies were conducted with Capan-2 cell lines. The cells were seeded into 96-well plates at […] per well and allowed to attach/grow for 24 h before drug solutions were added. The culture medium (RPMI-1640 + 10% fetal bovine serum) was removed and the cells were gently washed once with sterile pH 6.0 uptake buffer (145 mM NaCl, 0.5 mM MgCl2, 1 mM NaH2PO4, 1 mM CaCl2, 3 mM KCl, 5 mM glucose, and 5 mM MES). Floxuridine prodrugs and floxuridine were diluted in pH 6.0 uptake buffer to 4 mmol/L using no drug as a 100% viability control. The wash buffer was removed and 25 µL drug solution per well were added and incubated at 37 °C for 4 h in the cell incubator. After this time, the drug solutions were removed and the cells were again gently washed twice with sterile uptake buffer. RPMI-1640 was then added to each well after washing. The cells were allowed to recover for 4 h, 8 h, or 24 h before evaluating cell viability via 2,3-bis[2-methoxy-4-nitro-5-sulfophenyl]-2H-tetrazolium-5-carboxanilide inner salt (XTT) assays. […] Absorbance readings at 450 nm were recorded.

[2] = parameters: method as in PMID 18719516; conditions: pH 7.4 phosphate buffer; mean ± s.d.; ref [50]; cited from earlier work
human cathepsin B = target: T1, human cathepsin B (Homo sapiens, UniProt P07858); assay: Prodrug stability with human cathepsin B; assay type: biochemical; conditions: pH 7.4 phosphate buffer, 37 °C, 200 µM substrate
T1 construct: cathepsin B (human liver), and cathepsin D (human liver) were obtained from Sigma Chemical Co; purchased Sigma Chemical Co (St. Louis, MO, USA); host or cells: human liver (tissue-derived)
Source text: (§4) The high expression levels of cathepsins in tumors have been reported. It has been investigated if the protein levels of cathepsin B and D would associate with pathological parameters in order to assess the difference in protein levels of cathepsins as possible tumor biomarkers. Cathepsin B, one of the highest gene expressions in enzymes of Capan-2 cell, is a cysteine endopeptidase and reportedly has similar activity to carboxypeptidase and peptidyl-dipeptidase. On the other hand, cathepsin D has been reported that it preferentially hydrolyzes the peptide bond of bulky hydrophobic amino acids and the peptide bond between Phe-Phe of Bz-Arg-Gly-Phe-Phe-Pro-4MbNA [75, 76, 77]. The metabolic stability of floxuridine prodrugs was assessed using human cathepsin B and D in pH 7.4 phosphate buffer. […] However, the enzyme specificity between cathepsin B and D in prodrug activation for those two prodrugs was not observed.
(§5) Prodrug stability with Cathepsin B and D. Lyophilized enzyme powder was dissolved and adjusted to 2.5 mg/mL of pure enzyme, human cathepsin B and D. The hydrolysis reactions were immediately started by adding substrates (200 µM) in 96-well plates (Corning). The reactions were carried out at 37 °C for 120 min (time points; 0, 5, 10, 30, 60, and 120 min). At each time point, aliquot sample (35 µL) was removed and added to 150 µL of acetonitrile (ACN) with 0.1% TFA. The mixtures were filtered with a 0.45 µm filters at 1,000 × g for 10 min at 4 °C. The filtrate was then analyzed via reverse-phase HPLC.
as §2, with “The slopes of these plots are related to the rate constant, k, and given by:” left out
(§6) The concentrations of prodrugs and their metabolites were determined on a Waters HPLC system (Waters, Inc., Milford, MA, USA). […] Standard curves generated for each prodrug and their parent drugs were used for quantitation of integrated area under peaks.

human cathepsin D = target: T2, human cathepsin D (Homo sapiens, UniProt P07339); assay: Prodrug stability with human cathepsin D; assay type: biochemical; conditions: pH 7.4 phosphate buffer, 37 °C, 200 µM substrate
T2 construct: cathepsin B (human liver), and cathepsin D (human liver) were obtained from Sigma Chemical Co; purchased Sigma Chemical Co (St. Louis, MO, USA); host or cells: human liver (tissue-derived)
T2 sequence (P07339 169-412 limits assumed): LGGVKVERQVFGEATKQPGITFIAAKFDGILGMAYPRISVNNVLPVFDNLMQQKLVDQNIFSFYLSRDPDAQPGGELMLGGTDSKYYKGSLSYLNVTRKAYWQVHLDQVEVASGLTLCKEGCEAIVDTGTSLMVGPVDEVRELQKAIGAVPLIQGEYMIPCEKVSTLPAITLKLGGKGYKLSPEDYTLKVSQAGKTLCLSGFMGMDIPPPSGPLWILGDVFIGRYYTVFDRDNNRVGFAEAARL
T2 sequence (P07339 65-162 limits assumed): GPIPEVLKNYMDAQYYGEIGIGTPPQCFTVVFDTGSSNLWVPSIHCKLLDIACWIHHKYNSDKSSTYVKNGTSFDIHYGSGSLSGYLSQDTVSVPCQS
Source text: as §4, §5
as §2, with “The slopes of these plots are related to the rate constant, k, and given by:” left out
as §6

Compound | Half Life, DPP 3 Inhibitor (Capan-2 cell homogenate) [min] | Half Life, TPP 2 Inhibitor (Capan-2 cell homogenate) [min] | Half Life, Cathepsin D Inhibitor (Capan-2 cell homogenate) [min] | Half Life, Aminopeptidase Inhibitor (Capan-2 cell homogenate) [min] | Half Life, Capan-2 Cell Homogenate (Capan-2 cell homogenate) [min] | Change of half life with the presence of pepstatin A (Capan-2 cell homogenate; Capan-2 cell homogenate) | Change of half lives with other enzyme inhibitors (not pepstatin A) (Capan-2 cell homogenate; Capan-2 cell homogenate) | Stability (degradation) against cathepsin B compared with absence of enzyme (human cathepsin B) | Stability (degradation) against cathepsin D compared with absence of enzyme (human cathepsin D) | Fold decline of stability in cytosolic extract versus Capan-2 cell homogenate ([1]; 37 °C, pH 7.4 phosphate buffer) [fold] | Change of stability in all conditions (with and without enzyme inhibitors) (Capan-2 cell homogenate; Capan-2 cell homogenate) | Hydrolysis products observed (Capan-2 cell homogenate; Capan-2 cell homogenate) | Hydrolysis products detected in cell homogenates and cytosolic enzyme extracts [1] | Onset of growth inhibition of tumor cells (Capan-2 cell lines) | Half Life, Phosphate Buffer pH 7.4 [2] [min] | Fold longer half life (stability improved) in cytosolic extract than in Capan-2 cell homogenate ([1]; 37 °C, pH 7.4 phosphate buffer) [fold]
CC(C)C[C@H](NC(=O)CN)C(=O)OC[C@H]1O[C@@H](n2cc(F)c(=O)[nH]c2=O)C[C@@H]1O [5'-O-L-glycyl-L-leucylfloxuridine] |  |  |  |  |  |  |  |  |  |  | no change in its stability in all conditions | Amino acid monoester prodrugs of floxuridine and their parent drug were observed | Floxuridine and amino acid mono ester prodrugs of floxuridine were observed |  |  | 
N[C@@H](Cc1ccccc1)C(=O)N[C@@H](Cc1ccc(O)cc1)C(=O)OC[C@H]1O[C@@H](n2cc(F)c(=O)[nH]c2=O)C[C@@H]1O [5'-O-L-phenylalanyl-L-tyrosyl-floxuridine] | 47.2 ± 3.6 | 42.2 ± 1.3 | 105.7 ± 12.8 | 54.7 ± 2.8 | 42.8 ± 0.0 | significantly prolonged | not improved | significant degradation | significant degradation | 3.9 |  | Amino acid monoester prodrugs of floxuridine and their parent drug were observed | Floxuridine and amino acid mono ester prodrugs of floxuridine were observed |  | 233.9 ± 6.6 | 
N[C@@H](Cc1ccccc1)C(=O)OC[C@H]1O[C@@H](n2cc(F)c(=O)[nH]c2=O)C[C@@H]1O [5'-O-L-phenylalanylfloxuridine] | 28.9 ± 10.7 | 15.3 ± 0.6 | 60.6 ± 4.6 | 48.7 ± 0.37 | 3.0 ± 0.1 |  |  |  |  |  |  |  | only floxuridine was detected | immediately inhibited the growth of tumor cells | 187.0 ± 19.0 | 7.3
CC[C@H](C)[C@H](N)C(=O)NCC(=O)OC[C@H]1O[C@@H](n2cc(F)c(=O)[nH]c2=O)C[C@@H]1O [5′-O-L-isoleucyl-L-glycylfloxuridine] |  |  |  |  |  |  |  |  |  |  |  |  | only floxuridine was detected |  |  | 

The next lines start with results.

Half Life, DPP 3 Inhibitor (Capan-2 cell homogenate) [min] | Half Life, TPP 2 Inhibitor (Capan-2 cell homogenate) [min] | Half Life, Cathepsin D Inhibitor (Capan-2 cell homogenate) [min] | Half Life, Aminopeptidase Inhibitor (Capan-2 cell homogenate) [min] | Half Life, Capan-2 Cell Homogenate (Capan-2 cell homogenate) [min] | Change of half life with the presence of pepstatin A (Capan-2 cell homogenate; Capan-2 cell homogenate) | Change of half lives with other enzyme inhibitors (not pepstatin A) (Capan-2 cell homogenate; Capan-2 cell homogenate) | Stability (degradation) against cathepsin B compared with absence of enzyme (human cathepsin B) | Stability (degradation) against cathepsin D compared with absence of enzyme (human cathepsin D) | Fold decline of stability in cytosolic extract versus Capan-2 cell homogenate ([1]; 37 °C, pH 7.4 phosphate buffer) [fold] | Compound | Change of stability in all conditions (with and without enzyme inhibitors) (Capan-2 cell homogenate; Capan-2 cell homogenate) | Hydrolysis products observed (Capan-2 cell homogenate; Capan-2 cell homogenate) | Hydrolysis products detected in cell homogenates and cytosolic enzyme extracts [1] | Onset of growth inhibition of tumor cells (Capan-2 cell lines) | Half Life, Phosphate Buffer pH 7.4 [2] [min] | Fold longer half life (stability improved) in cytosolic extract than in Capan-2 cell homogenate ([1]; 37 °C, pH 7.4 phosphate buffer) [fold]
32.2 ± 9.3 | 5.6 ± 0.6 | 7.9 ± 0.7 | 14.0 ± 4.3 | 3.9 ± 1.1 |  |  |  |  |  | CC(C)C[C@H](N)C(=O)NCC(=O)OC[C@H]1O[C@@H](n2cc(F)c(=O)[nH]c2=O)C[C@@H]1O [5'-O-L-leucyl-L-glycylfloxuridine] |  |  | only floxuridine was detected | immediately inhibited the growth of tumor cells | 23.1 ± 4.1 | 
67.7 ± 15.1 | 46.1 ± 1.9 | 76.4 ± 6.1 | 93.6 ± 29.3 | 56.2 ± 12.8 |  |  | not a good substrate for cathepsins | not a good substrate for cathepsins |  | CC(C)[C@H](N)C(=O)N[C@@H](Cc1ccccc1)C(=O)OC[C@H]1O[C@@H](n2cc(F)c(=O)[nH]c2=O)C[C@@H]1O [5'-O-L-valyl-L-phenylalanyl-floxuridine] |  | Amino acid monoester prodrugs of floxuridine and their parent drug were observed | Floxuridine and amino acid mono ester prodrugs of floxuridine were observed |  | 104.7 ± 7.0 | 
